Data taken from patent US10537100B2, “Substituted methylenedioxybenzyl compounds and their use as synergists” (Endura SPA, priority 2015, dated 2020).

Assays:
[1] = system: CYP6CY3 from Myzus persicae; experiment: Inhibition of recombinant oxidase enzyme (P450) CYP6CY3, MFC substrate; assay type: biochemical; conditions: for inhibition activity compared with PBO: CYP6CY3, statement in text; for Myzus persicae CYP6CY3 percentage of activity remaining: recombinant enzyme 50 μL + 3 μL stock in acetone (Examples 1 and 2: 0.1 mM; PBO: 10 mM), 10 min incubation, MFC
Description: Ability of the synergists of the invention to inhibit oxidative enzymes (P450), a major mechanism conferring resistance to xenobiotics, was measured using recombinant enzymes corresponding to CYP6CY3 from Myzus persicae and CYP6CM1 from Bemisia tabaci.
The following synergists were tested in comparison with piperonyl butoxide (PBO): • 5-n-butyl-6-((prop-2-ynyloxy)methyl)benzo[d][1,3]dioxole the compound prepared in Example 2 • 5-n-hexyl-6-((prop-2-ynyloxy)methyl)benzo[d][1,3]dioxole the compound prepared in Example 1 CYP6CM1
For CYP6CY3, 7-ethoxycoumarin was not an appropriate substrate and MFC (7-methoxy-4-trifluoromethylcoumarin) was utilised instead. MFC was dissolved in dimethylsulfoxide to make a 20 mM stock solution and diluted by the addition of 0.1 M sodium phosphate buffer, pH 7.8, to give a concentration of 0.5 mM. Recombinant enzyme (10 μL) was added to separate wells of a microplate as before and diluted to 50 μL with 0.1 M phosphate buffer pH 7.6, followed by the addition of 80 μL of 0.5 mM MFC. The microplate was incubated for 5 min at 30° C., and the reaction was initiated by the addition of 10 μL of 9.6 mM NADPH in 0.1 M sodium phosphate, pH 7.8. Enzyme activity was read in a Spectramax Gemini EM for 60 min, with readings taken every 2 min, using an excitation wavelength of 410 nm and an emission wavelength of 510 nm, with a 495 nm cut-off filter. The rate (FU min^−1) was calculated by the integrated software, Softmax Pro v.5.4. as before.
For inhibition assays, stock solutions of the compounds of Example 1 and 2 (0.1 mM) were prepared in acetone. Dilute recombinant enzyme (50 μL) was mixed with 3 μL of stock solutions, with acetone only used as a control. After 10 min incubation at room temperature, 80 μL of 0.5 mM MFC was added, followed by 10 μL of 9.6 mM NADPH in 0.1 M sodium phosphate, pH 7.8. Enzyme activity remaining was then monitored as above. A PBO solution (10 mM) was prepared in the same way as a comparison.

Blattella germanica = experiment: Contact test on treated glass vials, synergist with cypermethrin; assay type: in vivo
Description: Laboratory bred B. germanica species, mixed ages (pre-immaginal and imagoes) and mixed sex were assayed for the test.
An insecticide stock solution was prepared with 150 μL of cypermethrin commercial formulation and diluted to 15 μL/mL with technical acetone to a final volume of 10 mL. The solution contained 450 μg/mL of cypermethrin per liter of insecticidal solution
Stock solution of the compounds of Example 1 and Example 2 were prepared dissolving around 10 mg of EC formulations containing compounds of the Example 1 and Example 2 in technical acetone to have a final concentration of 1.365 μg/mL.
Stock solution (1650 μL) was diluted to 2250 μL with acetone or with stock of insecticide in acetone to have respectively a final concentration of 1 g/L of synergist (as active ingredient) or 0.12 g/L of cypermethrin+1 g/L of the compounds of Example 1 and Example 2. Insecticide alone was prepared adding 600 μL of stock solution to 1650 μL of acetone.
Glass vials (internal surface 35 cm^2) were treated with 350 μL of insecticide solution and allowed to dry in a fume hood on a vial rotator and used as soon as the acetone was fully evaporated.
B. germanica specimens were introduced singly in vials. 20 specimens were tested for each combination of product. The exposure time to product residues was 30 minutes. After this duration the specimens were transferred to an untreated vial ad provided with food and water.
In parallel within the test, a control study has been set up with the same conditions and methods using acetone only treated vials.
The test conditions were as follows: • temperature: 22-24° C. during knock down evaluation (t: 0-30′); 26° C. during mortality assessment (t: 24 h) • relative humidity: min. 60% • light regime: 8 hrs dark/16 hrs natural illumination.
The reading intervals of the number of knocked down and the number of dead insects were: 5-10-15-20-25-30 minutes. A final reading was done 24 hours after the starting of the exposure.
The calculation model of efficacy is according to Abbott's formula (Abbott W S (1925) A method for computing the effectiveness of an insecticide. J. Econ. Entomol. 18: 265-267):
The results are reported in the following Table 5 and represent an average of 4 repetitions.

[2] = system: Myzus persicae clone highly resistant to insecticide; experiment: Contact test on treated plant (pea seedling dip), synergist with neonicotinoid; assay type: in vivo; conditions: for Efficacy of the tested compounds: synergist 1 g/L, mortality assessed at 48 hours, Abbott's formula
Description: Laboratory bred Myzus persicae clone highly resistant to insecticide, derived from a field collected population after control failure, mixed age apterous parthenogenetic females adults, were assayed for the test.
Four (4) different commercially available formulated insecticides were used and diluted as follow: • imidacloprid: 1000 mL of test solution was prepared diluting in water 20 μL of commercial formulation, containing 200 g/L of a.i., equivalent to 0.004 g of imidacloprid per liter of insecticidal solution; • thiacloprid: 1000 mL of test solution was prepared diluting in water 24 μL of commercial formulation containing 480 g/L of a.i, equivalent to 0.012 g of thiacloprid per liter of insecticidal solution;
The compounds of Example 1 and Example 2 were formulated in the form of emulsified concentrate (EC).
The following amount of the EC formulations were added to the above described insecticidal solution of insecticide to have a final concentration of synergist equal to 1 g/L:
20 mL of test formulations were used to wet by dipping for 5″ a small pea seedling (1-1.5 cm long). Seedlings were left at room temperature in a fume hood and allowed to dry for 15″. After drying 10-15 apterous parthenogenetic females were moved to the seedling and allowed to settle. Mortality produced by pyrethroids was assessed 24 hours later. Mortality produced by neonicotinoids was assessed 48 hours later.
Three replicates were executed each composed by 2 subreplicates (seedlings) and 60-90 specimens were used per test formulation.
In parallel with the test, the mortality of aphids in an untreated control replicate (seedlings dipped in water) was determined using the same conditions and methods.
The efficacy was calculated according the Abbott's formula: […]

[3] = Imidacloprid (0.004 g per liter)
[4] = thiacloprid (0.012 g per liter)

Row | Structure (SMILES) | inhibition activity compared with PBO [1] | Myzus persicae CYP6CY3 percentage of activity remaining [1] [%] | synergist effect when mixed with Cypermethrin (Blattella germanica) | efficacy in combination with imidacloprid and thiacloprid [2] | Efficacy of the tested compounds [2, 3] | Efficacy of the tested compounds [2, 4]
1 | C#CCOCc1cc2c(cc1CCCCCC)OCO2 [Compound of Example 1, 5-n-hexyl-6-((prop-2-ynyloxy)methyl)benzo[d][1,3]dioxole] | better than PBO | 8.51 | synergist effect | very good efficacy | 23.8 | 23.8
2 | C#CCOCc1cc2c(cc1CCCC)OCO2 [Compound of Example 2, 5-n-butyl-6-((prop-2-ynyloxy)methyl)benzo[d][1,3]dioxole] | better than PBO | 4.04 | synergist effect | very good efficacy | −20.3 | −20.3
